Results from BindingDB's records for doi:10.1021/jm049771u (Bar-Ilan University, 2004).

Molecular target: P2Y purinoceptor 1 (Rattus norvegicus, UniProt P49651)
Test: Concentration required for calcium mobilization at rat purinergic 2Y1 receptor expressed in HEK 293 cells

Chain of P2Y purinoceptor 1 (P49651 whole entry): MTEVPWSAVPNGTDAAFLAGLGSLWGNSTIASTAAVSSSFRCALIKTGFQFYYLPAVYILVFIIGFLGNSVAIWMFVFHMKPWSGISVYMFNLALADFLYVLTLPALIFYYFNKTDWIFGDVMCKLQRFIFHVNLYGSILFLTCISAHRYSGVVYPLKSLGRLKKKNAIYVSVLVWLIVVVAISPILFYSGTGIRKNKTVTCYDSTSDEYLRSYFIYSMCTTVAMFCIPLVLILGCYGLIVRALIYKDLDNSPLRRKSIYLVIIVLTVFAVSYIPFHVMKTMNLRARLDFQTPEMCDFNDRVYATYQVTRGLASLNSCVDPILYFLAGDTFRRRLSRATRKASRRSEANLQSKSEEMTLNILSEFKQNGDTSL

EC50: 4.5 nM
Compound: B[PH](O)(OC[C@H]1OC(n2cnc3c(N)nc(Cl)nc32)[C@H](O)[C@@H]1O)OP(=O)(O)OP(=O)(O)O (stereo partly specified)
